Source: ChEMBL document CHEMBL1201862, “PubChem BioAssay data set” (2004)
Blank lines part the entries; values can stand above or below the compound they belong to. Activity calls are given as the source filed them.

Experiments:
[1] = target: Glucose-6-phosphate 1-dehydrogenase (Homo sapiens, UniProt P11413); assay: human G6PD enzyme inhibitors, dose response, selectivity assay for P. falciparum G6PD inhibitor project, biochemical, fluorescence (AID 504792); format: functional
[2] = target: Eukaryotic translation initiation factor 4E (Mus musculus, UniProt P63073); assay: eIF4E–eIF4G protein interaction inhibitors, dose response, biochemical, TR-FRET (AID 855); format: functional;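 also: potency for disrupting eIF4E binding to eIF4GI seen as loss of FRET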
[3] = HepG2 cell cytotoxicity, dose response, cytotoxicity control, plate reader, cherry-pick, antagonist series (AID 743416); format: functional, cell-based
[4] = tested on: HEK293; assay: NOD1 signaling inhibitors, primary screen, cell-based, luminescence, uHTS (AID 1578); format: functional; conditions: Homo sapiens
[5] = target: T1, Histone-lysine N-methyltransferase NSD2 (Homo sapiens, UniProt O96028); format: biochemical
T1 sequence (O96028 whole entry): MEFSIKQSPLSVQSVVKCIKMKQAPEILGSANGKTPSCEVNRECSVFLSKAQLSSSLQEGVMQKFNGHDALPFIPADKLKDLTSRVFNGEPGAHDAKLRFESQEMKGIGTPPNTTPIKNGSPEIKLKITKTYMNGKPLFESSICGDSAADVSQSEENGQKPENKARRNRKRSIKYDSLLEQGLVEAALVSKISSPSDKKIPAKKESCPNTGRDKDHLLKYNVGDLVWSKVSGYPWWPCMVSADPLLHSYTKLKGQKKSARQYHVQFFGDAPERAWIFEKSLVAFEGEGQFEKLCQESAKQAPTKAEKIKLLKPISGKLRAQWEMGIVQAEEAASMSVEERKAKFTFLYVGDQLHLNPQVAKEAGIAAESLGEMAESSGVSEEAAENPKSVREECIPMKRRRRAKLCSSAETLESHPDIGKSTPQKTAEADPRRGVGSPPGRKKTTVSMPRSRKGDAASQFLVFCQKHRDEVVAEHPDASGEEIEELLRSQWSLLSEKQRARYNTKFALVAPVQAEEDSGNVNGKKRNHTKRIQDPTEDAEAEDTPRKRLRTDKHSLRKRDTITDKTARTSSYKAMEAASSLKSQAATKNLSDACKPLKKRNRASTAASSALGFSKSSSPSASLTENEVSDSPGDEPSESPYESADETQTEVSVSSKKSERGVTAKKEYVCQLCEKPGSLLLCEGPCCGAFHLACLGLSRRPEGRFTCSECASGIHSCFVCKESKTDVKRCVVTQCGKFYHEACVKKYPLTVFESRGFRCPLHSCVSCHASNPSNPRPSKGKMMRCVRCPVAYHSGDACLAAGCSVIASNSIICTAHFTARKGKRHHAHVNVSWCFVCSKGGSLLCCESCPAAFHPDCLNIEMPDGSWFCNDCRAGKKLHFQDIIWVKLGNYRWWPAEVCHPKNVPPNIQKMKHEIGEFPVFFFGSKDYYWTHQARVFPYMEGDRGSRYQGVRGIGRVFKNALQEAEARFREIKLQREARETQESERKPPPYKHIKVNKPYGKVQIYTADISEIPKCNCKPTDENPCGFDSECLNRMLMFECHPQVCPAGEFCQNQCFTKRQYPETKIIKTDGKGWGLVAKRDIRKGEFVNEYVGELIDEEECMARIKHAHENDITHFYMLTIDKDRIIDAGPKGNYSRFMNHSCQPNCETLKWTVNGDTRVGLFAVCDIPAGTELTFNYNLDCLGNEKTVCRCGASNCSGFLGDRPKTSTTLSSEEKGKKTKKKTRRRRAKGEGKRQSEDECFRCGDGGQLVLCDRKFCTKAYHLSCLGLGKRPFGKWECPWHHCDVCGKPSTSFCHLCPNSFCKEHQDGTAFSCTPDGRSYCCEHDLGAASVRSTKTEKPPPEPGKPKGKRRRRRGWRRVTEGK

[6] = target: Serine/threonine-protein kinase PLK4 (Homo sapiens, UniProt O00444); format: functional;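 also: PLK4 measured as one member of a kinome-wide kinase profiling panel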
[7] = target: Tyrosine-protein kinase Lck (Homo sapiens, UniProt P06239); format: functional;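 also: lck was assayed as one member of a kinase panel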
[8] = target: MAP kinase-activated protein kinase 2 (Homo sapiens, UniProt P49137); format: functional;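 also: measured as one member of a kinome-wide kinase panel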
[9] = target: Ribosomal protein S6 kinase alpha-5 (Homo sapiens, UniProt O75582); format: functional
[10] = target: Receptor tyrosine-protein kinase erbB-2 (Homo sapiens, UniProt P04626); assay: Navigating the Kinome. Panel member name: ERBB2; format: functional
[11] = target: Serine/threonine-protein kinase Chk1 (Homo sapiens, UniProt O14757); format: functional;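 also: measured as one member of a kinome-wide kinase profiling panel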
[12] = target: Misshapen-like kinase 1 (Homo sapiens, UniProt Q8N4C8); format: functional;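 also: kinome panel screen with MINK as the panel member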
[13] = target: Protein kinase C iota type (Homo sapiens, UniProt P41743); format: functional;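 also: measured within a kinome-wide kinase panel, PRKCI as panel member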
[14] = target: Interleukin-1 receptor-associated kinase 4 (Homo sapiens, UniProt Q9NWZ3); format: functional
[15] = target: Rho-associated protein kinase 1 (Homo sapiens, UniProt Q13464); format: functional;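 also: measured within a broad kinome-wide panel profiling many kinases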
[16] = target: Tyrosine-protein kinase Fyn (Homo sapiens, UniProt P06241); format: functional
[17] = target: Serine/threonine-protein kinase Nek2 (Homo sapiens, UniProt P51955); format: functional
[18] = target: BDNF/NT-3 growth factors receptor (Homo sapiens, UniProt Q16620); format: functional;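 also: NTRK2 measured as one member of a broad kinome-wide kinase profiling panel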
[19] = target: Mitogen-activated protein kinase 12 (Homo sapiens, UniProt P53778); format: functional;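 also: measured as one member of a kinome-wide kinase profiling panel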
[20] = target: Dual specificity protein kinase CLK4 (Homo sapiens, UniProt Q9HAZ1); format: functional
[21] = target: Mitogen-activated protein kinase kinase kinase kinase 4 (Homo sapiens, UniProt O95819); format: functional
[22] = target: Delta-type opioid receptor (Homo sapiens, UniProt P41143); assay: HTS Image-Based Screen for Agonists of the DOR Receptor. [Related pubchem assays (depositor defined):AID1777, AID1786, AID2133]; format: functional
[23] = tested on: HeLa; assay: Cytotoxicity counterscreen assay for transcriptional activators of heat shock protein 70 (Hsp70). [Related pubchem assays: 1203, 1252 ]; format: functional; conditions: Homo sapiens;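 also: cells exposed to compound for 16 hours before readout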
[24] = tested on: BJ; assay: cytotoxicity toward BJ-TERT fibroblasts, dose response, cell-based, RAS-independent, luminescence (AID 1933); format: functional; conditions: Homo sapiens
[25] = tested on: BJ; assay: cells; format: functional, cell-based; conditions: Homo sapiens
[26] = target: Kappa-type opioid receptor (Homo sapiens, UniProt P41145); format: functional
[27] = target: Sphingosine 1-phosphate receptor 1 (Homo sapiens, UniProt P21453); format: functional;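 also: Tango beta-arrestin reporter U2OS cells stimulated with S1P near its EC80; inhibitor potency meaning antagonism of receptor activation by the natural agonist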
[28] = cells

Dual specificity protein kinase CLK4, sequence (Q9HAZ1 whole entry): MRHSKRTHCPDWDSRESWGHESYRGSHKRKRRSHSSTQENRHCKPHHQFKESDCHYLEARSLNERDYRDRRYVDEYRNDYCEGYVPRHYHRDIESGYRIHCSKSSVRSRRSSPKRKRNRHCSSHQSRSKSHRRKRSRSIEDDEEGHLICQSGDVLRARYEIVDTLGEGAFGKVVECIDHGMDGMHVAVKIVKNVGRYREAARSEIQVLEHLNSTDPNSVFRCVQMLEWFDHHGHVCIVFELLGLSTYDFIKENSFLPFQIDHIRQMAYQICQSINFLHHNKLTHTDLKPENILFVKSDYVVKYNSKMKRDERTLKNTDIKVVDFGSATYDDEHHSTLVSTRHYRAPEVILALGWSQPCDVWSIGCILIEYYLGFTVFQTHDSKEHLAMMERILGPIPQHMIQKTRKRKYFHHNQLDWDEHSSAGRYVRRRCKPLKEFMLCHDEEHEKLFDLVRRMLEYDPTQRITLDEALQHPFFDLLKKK
Glucose-6-phosphate 1-dehydrogenase, sequence (P11413 whole entry): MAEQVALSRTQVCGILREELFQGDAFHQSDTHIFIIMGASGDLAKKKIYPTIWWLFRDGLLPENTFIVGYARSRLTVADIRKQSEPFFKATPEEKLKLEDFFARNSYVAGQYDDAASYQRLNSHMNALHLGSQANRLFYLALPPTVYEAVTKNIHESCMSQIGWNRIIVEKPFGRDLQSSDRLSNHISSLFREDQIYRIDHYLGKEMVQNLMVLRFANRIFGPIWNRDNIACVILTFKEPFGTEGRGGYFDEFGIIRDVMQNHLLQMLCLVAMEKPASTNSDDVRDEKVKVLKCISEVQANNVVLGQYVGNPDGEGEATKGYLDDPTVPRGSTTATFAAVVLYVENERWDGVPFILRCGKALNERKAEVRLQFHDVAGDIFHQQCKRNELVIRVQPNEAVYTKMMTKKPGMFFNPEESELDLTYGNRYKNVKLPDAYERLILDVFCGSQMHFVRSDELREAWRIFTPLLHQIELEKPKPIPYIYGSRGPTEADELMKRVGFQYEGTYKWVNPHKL
Receptor tyrosine-protein kinase erbB-2, sequence (P04626 whole entry): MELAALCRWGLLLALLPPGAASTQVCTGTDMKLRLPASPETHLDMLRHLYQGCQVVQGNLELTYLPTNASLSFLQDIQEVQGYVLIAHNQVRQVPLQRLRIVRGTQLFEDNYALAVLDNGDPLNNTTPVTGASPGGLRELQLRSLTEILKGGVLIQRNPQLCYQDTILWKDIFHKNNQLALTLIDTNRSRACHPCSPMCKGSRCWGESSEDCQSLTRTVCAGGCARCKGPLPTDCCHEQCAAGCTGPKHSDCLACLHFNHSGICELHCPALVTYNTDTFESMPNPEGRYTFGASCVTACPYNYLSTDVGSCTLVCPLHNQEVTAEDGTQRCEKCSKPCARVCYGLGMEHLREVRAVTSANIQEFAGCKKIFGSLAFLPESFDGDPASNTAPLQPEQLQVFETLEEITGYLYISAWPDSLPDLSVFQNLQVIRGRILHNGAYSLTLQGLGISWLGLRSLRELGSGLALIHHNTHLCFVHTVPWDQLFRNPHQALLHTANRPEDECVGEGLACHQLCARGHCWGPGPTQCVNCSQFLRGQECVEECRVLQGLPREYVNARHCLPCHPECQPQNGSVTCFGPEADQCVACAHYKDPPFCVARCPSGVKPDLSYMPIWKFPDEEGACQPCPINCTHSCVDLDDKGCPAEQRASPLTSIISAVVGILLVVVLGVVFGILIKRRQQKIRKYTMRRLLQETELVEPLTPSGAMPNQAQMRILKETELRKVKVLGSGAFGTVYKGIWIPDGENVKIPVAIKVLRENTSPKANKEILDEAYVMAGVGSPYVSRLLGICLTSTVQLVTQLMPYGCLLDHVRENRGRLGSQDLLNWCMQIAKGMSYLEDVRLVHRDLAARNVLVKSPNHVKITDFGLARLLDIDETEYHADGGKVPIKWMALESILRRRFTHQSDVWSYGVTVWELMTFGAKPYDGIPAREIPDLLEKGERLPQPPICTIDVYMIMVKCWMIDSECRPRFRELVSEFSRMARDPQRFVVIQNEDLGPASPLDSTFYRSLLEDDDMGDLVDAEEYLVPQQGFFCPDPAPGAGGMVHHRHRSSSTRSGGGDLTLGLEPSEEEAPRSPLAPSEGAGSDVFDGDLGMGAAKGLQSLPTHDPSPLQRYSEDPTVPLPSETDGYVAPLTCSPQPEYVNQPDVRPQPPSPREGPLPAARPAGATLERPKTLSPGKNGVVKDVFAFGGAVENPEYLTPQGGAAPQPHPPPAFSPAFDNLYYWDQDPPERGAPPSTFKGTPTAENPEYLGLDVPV
MAP kinase-activated protein kinase 2, sequence (P49137 whole entry): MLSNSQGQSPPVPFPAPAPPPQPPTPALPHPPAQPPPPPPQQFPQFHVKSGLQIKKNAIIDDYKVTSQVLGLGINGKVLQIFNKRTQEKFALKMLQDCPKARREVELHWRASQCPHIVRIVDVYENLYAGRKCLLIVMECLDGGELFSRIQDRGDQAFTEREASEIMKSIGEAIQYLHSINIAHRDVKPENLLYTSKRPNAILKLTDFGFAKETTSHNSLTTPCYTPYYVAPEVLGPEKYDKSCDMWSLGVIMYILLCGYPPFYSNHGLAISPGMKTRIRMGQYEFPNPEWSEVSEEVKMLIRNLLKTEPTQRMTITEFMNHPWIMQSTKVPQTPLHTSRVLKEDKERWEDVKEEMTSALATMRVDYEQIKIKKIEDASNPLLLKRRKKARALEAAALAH
Mitogen-activated protein kinase kinase kinase kinase 4, sequence (O95819 whole entry): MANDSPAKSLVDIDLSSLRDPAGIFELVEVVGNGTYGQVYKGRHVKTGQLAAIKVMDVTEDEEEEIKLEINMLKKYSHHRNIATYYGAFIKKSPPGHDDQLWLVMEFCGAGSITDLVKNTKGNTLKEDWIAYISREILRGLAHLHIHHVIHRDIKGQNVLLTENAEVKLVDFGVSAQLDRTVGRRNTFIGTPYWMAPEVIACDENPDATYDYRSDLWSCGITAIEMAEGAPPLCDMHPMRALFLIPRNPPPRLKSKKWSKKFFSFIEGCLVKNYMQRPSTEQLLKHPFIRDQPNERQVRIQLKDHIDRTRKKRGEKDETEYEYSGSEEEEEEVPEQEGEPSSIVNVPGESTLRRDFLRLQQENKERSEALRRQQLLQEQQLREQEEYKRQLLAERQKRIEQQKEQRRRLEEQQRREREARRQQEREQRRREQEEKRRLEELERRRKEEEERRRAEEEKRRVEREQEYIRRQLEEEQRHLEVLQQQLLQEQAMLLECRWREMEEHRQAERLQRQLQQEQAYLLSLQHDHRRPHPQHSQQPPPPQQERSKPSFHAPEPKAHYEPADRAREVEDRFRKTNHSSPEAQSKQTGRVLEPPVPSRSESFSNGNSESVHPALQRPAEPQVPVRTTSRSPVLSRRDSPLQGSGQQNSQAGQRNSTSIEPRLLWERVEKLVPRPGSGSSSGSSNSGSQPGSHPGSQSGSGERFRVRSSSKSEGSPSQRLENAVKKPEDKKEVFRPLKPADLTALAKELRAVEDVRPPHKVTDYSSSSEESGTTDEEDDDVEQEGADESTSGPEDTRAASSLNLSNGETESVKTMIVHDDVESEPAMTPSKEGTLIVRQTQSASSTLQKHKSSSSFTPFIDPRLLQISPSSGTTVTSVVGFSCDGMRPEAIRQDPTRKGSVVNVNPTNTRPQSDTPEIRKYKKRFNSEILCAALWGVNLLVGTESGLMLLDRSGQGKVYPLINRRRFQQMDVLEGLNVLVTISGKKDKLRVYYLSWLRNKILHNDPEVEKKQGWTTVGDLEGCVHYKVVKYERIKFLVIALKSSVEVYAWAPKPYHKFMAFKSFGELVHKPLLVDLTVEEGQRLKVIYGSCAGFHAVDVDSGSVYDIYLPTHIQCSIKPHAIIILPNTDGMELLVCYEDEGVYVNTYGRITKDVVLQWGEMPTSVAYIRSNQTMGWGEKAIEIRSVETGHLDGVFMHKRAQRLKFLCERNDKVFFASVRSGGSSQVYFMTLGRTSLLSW
Ribosomal protein S6 kinase alpha-5, sequence (O75582 whole entry): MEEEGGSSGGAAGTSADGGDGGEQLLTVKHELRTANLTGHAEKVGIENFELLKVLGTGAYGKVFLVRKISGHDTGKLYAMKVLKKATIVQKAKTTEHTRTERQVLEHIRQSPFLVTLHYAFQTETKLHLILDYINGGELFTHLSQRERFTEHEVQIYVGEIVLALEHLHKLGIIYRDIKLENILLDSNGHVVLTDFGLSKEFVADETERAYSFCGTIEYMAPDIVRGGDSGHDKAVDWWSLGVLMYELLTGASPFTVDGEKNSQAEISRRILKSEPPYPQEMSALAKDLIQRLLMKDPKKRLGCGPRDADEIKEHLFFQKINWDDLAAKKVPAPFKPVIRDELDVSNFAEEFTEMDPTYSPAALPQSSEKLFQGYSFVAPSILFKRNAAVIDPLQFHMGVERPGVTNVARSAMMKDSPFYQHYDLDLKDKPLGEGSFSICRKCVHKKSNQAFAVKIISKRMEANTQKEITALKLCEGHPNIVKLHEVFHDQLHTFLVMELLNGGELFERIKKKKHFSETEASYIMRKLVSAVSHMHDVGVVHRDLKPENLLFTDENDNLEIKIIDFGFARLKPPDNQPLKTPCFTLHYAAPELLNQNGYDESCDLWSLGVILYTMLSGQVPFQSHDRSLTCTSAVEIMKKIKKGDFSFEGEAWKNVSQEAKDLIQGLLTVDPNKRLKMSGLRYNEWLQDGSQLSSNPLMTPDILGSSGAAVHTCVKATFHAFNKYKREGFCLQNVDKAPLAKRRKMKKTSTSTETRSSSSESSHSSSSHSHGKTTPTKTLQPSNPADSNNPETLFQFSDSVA
Delta-type opioid receptor, sequence (P41143 whole entry): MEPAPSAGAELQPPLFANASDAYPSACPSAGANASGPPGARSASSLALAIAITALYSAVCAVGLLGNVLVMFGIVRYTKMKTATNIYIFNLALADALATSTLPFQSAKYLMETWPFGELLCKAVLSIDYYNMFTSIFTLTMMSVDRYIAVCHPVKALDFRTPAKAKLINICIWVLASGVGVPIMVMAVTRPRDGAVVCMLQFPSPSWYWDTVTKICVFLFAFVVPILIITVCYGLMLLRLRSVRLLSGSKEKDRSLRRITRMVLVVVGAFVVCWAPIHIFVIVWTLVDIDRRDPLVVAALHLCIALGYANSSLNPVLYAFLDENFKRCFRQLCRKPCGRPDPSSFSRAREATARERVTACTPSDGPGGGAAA

Structure (SMILES): CN(C)c1ncc(C2=C(Cl)C(=O)C(N3CCCC3)=C(Cl)C2=O)s1
IC50 [1]: 30.7 µM (inactive) | IC50 [2]: > 64 µM (inactive)

Structure (SMILES): Cc1cnc(NC(=O)c2sc3ccccc3c2Cl)s1
AC50 [3]: > 52 µM (inactive)

Structure (SMILES): O=C1C(O)=C/C(=N\c2ccccc2O)c2ccccc21
EC50 [4]: 14.8 µM (active) | AC50 [5]: 2.39 µM (active)

Ki [6]: 1.26 µM (active) | Ki [7]: > 2.51 µM (inactive) | Ki [8]: > 7.94 µM (inactive) | Ki [9]: > 2 µM (inactive) | Ki [10]: > 1.58 µM (inactive) | Ki [11]: > 7.94 µM (inactive) | Ki [12]: > 7.94 µM (inactive) | Ki [13]: > 5.01 µM (inactive) | Ki [14]: 7.94 µM (active) | Ki [15]: 5.01 µM (active) | Ki [16]: > 0.794 µM (inactive) | Ki [17]: > 10 µM (inactive) | Ki [18]: > 5.01 µM (inactive) | Ki [19]: > 6.31 µM (inactive) | Ki [20]: 0.631 µM (active) | Ki [21]: 0.631 µM (active)
Structure (SMILES): O=C1NC(=S)SC1=C1C(=O)Nc2ccc(Br)cc21

Structure (SMILES): Cc1ccc(Nc2cc(C)nn2-c2nc(C)cc(O)n2)cc1
EC50 [22]: > 32 µM (inactive) | CC50 [23]: 7.59 µM (active) | EC50 [24]: 0.549 µM (active) | EC50 [25]: 14 µM (active) | IC50 [26]: 0.747 µM (active) | IC50 [27]: 0.764 µM (active) | EC50 [28]: 0.074 µM (active)
